Data on 8 compounds can be found in ChEMBL document CHEMBL1772974, “Optimization of potent, selective, and orally bioavailable pyrrolodinopyrimidine-containing inhibitors of heat shock protein 90. Identification of development candidate …” (J Med Chem, 2011).

One data set can be described thus: in vitro. The settings on record: human, Caco-2.
The nature of data set [1]: Toxicity in human A2058 cells xenografted po dosed nu/nu athymic mouse. The class given is organism-based. The following applies: in vivo. On the technique in general: In xenograft studies the graft and the host belong to different species.
Data set [2] in a line: Oral bioavailability in Han Wistar rat at 10 mg/kg administered as solution in 40% PEG400 in saline. The class given is ADME, organism-based. The following applies: in vivo.
A short description of data set [3]: Solubility of the compound. The data set is classed as physicochemical.
The nature of data set [4]: Volume of distribution at steady state in Han Wistar rat at […], iv. The class given is ADME, organism-based. Details: dose 2.5 mg/kg, route intravenous. The following applies: in vivo, read-out: Vdss.
Data set [5] can be described thus: Permeability from basolateral to apical side of MDCK cells. The data set is classed as ADME, cell-based, Canis lupus familiaris. The settings on record: dog, read-out: permeability.
Data set [6] is described as follows: Oral bioavailability in Beagle dog at 0.5 mg/kg administered as suspension in 0.5% methylcellulose. The data set is classed as ADME, organism-based, Canis lupus familiaris. The following applies: in vivo.
Data set [7] can be described thus: Volume of distribution at steady state in Beagle dog at 0.5 mg/kg, iv. The data set is classed as ADME, organism-based, Canis lupus familiaris. Further details: dose 0.5 mg/kg, route intravenous. The following applies: in vivo, read-out: Vdss.
Data set [8] in a line: Oral bioavailability in Beagle dog at 0.5 mg/kg administered as solution in 40% PEG400 in saline. The data set is classed as ADME, organism-based, Canis lupus familiaris. The settings on record: in vivo.
The nature of data set [9]: Permeability from apical to basolateral side of MDCK cells. The data set is classed as ADME, cell-based, Canis lupus familiaris. The following applies: dog, read-out: permeability.
Data set [10] is described as follows: Oral bioavailability in Han Wistar rat at 10 mg/kg administered as suspension in 0.5% methylcellulose. The following applies: in vivo. The class given is ADME, organism-based.

Molecules are shown by their SMILES. In brackets after ≈: the same amount, converted by molar mass.

For `Nc1nc2c(c(-c3c(Cl)cc(Cl)cc3OCCn3cccn3)n1)CN(C(=O)NC1CCC1)C2`, in the data set “in vitro”, the Papp A→B came to 4.7 ×10⁻⁶ cm/s.
Same read-out and setting: as for `Nc1nc2c(c(-c3c(Cl)cc(Cl)cc3OCCn3cccn3)n1)CN(C(=O)NC1CC(F)(F)C1)C2`, the figure is 1.5 ×10⁻⁶ cm/s.
As for `CO[C@H]1/C=C\C=C(/C)C(=O)NC2=CC(=O)C(NCCN(C)C)=C(C[C@@H](C)C[C@H](OC)[C@H](O)[C@@H](C)/C=C(\C)[C@@H]1OC(N)=O)C2=O` [ALVESPIMYCIN], in data set [1], the MTD came out at 10 mg/kg.
In general, bioavailability refers to the share of a dose that reaches the circulation, judged against a reference dose that is usually intravenous. Low values mean poor availability, high ones good availability. One may read the solubility as the dissolved amount per volume that the medium holds. The low end stands for a poorly soluble substance, the high end for a readily soluble substance. As for `Cc1cc(Cl)cc(OCCn2cc(F)cn2)c1-c1nc(N)nc2c1CN(C(=O)NCC(C)(F)F)C2`, the bioavailability was 19% in data set [2], 58% in data set [6], 63% in [8] and 15% in data set [10]. This compound also displayed a solubility in [3] of 200 µM (≈ 102 µg/mL). The Vd was determined as 9.6 L/kg in data set [4] and 8 L/kg in [7]. For the same compound, in data set [5], the Papp B→A worked out at 11 ×10⁻⁶ cm/s. Besides, in data set [9], the Papp A→B amounted to 2.4 ×10⁻⁶ cm/s.
Compound `Nc1nc2c(c(-c3c(Cl)cc(Cl)cc3OCCn3cccn3)n1)CN(C(=O)NC13CC(C1)C3)C2` had a Papp A→B in the data set “in vitro” of 5 ×10⁻⁶ cm/s.
The same measure, in the same setting: as for `Nc1nc2c(c(-c3c(Cl)cc(Cl)cc3OCCn3cccn3)n1)CN(C(=O)NC1CC1)C2`, the figure is 0.5 ×10⁻⁶ cm/s; as for `Nc1nc2c(c(-c3c(Cl)cc(Cl)cc3OCCn3cccn3)n1)CN(C(=O)NCC(F)F)C2`, 1.2 ×10⁻⁶ cm/s.
On the same count and under the same terms, as for `Nc1nc2c(c(-c3c(Cl)cc(Cl)cc3OCCn3cccn3)n1)CN(C(=O)NCC(F)(F)F)C2`, the figure is 0.96 ×10⁻⁶ cm/s.
